Experimental data as given in ChEMBL document CHEMBL4765326, “Anchoring BODIPY photosensitizers enable pan-microbial photoinactivation” (Eur J Med Chem, 2020).
Activity calls are given as the source filed them. No cut-off for these calls is given here.

Columns and labels:
Cell membrane [1] = assay: Disruption of cell membrane integrity in Staphylococcus aureus at 2 uM irradiated with 6J/cm2 light followed by compound exposure for 10 mins by FL-4L/propidium iodide Live/dead staining based laser confocal microscopic analysis
[2] = Induction of singlet oxygen generation in DPBF solution assessed as singlet oxygen quantum yield irradiated with 80 mW/cm2 light by DPBF-based assay; format: functional
[3] = Octanol-water partition coefficient, logP of compound incubated for 24 hrs under shaking condition; format: physicochemical
Staphylococcus aureus [4] = assay: Photodynamic antibacterial activity against Staphylococcus aureus assessed as bacterial eradication preincubated for 20 mins in dark condition followed by 18 J/cm2 LED light irradiation and measured after 18 hrs by broth microdilution method; format: functional; details: light or radiation study, 18.33 h, time 1100 min
Escherichia coli [5] = assay: Photodynamic antibacterial activity against Escherichia coli assessed as bacterial eradication preincubated for 20 mins in dark condition followed by 18 J/cm2 LED light irradiation and measured after 18 hrs by broth microdilution method; format: functional; details: light or radiation study, 18.33 h, time 1100 min
Candida albicans [6] = assay: Photodynamic antifungal activity against Candida albicans assessed as fungal eradication preincubated for 20 mins in dark condition followed by 18 J/cm2 LED light irradiation and measured after 18 hrs by broth microdilution method; format: functional; details: light or radiation study, 18.33 h, time 1100 min
Staphylococcus aureus [7] = assay: Photodynamic antibacterial activity against methicillin resistant Staphylococcus aureus assessed as bacterial eradication preincubated for 20 mins in dark condition followed by 18 J/cm2 LED light irradiation and measured after 18 hrs by broth microdilution method; format: functional; details: light or radiation study, 18.33 h, time 1100 min
Staphylococcus aureus [8] = assay: Photodynamic antimicrobial activity against Staphylococcus aureus preincubated for 10 mins in dark followed by irradiation with 6J/cm2 light and measured after incubation for 36 to 48 hrs; format: functional, organism-based; details: dose 3-18 µM, time 2170-2890 min
Escherichia coli [9] = assay: Photodynamic antimicrobial activity against Escherichia coli preincubated for 10 mins in dark followed by irradiation with 6J/cm2 light and measured after incubation for 36 to 48 hrs; format: functional, organism-based; details: dose 2-10 µM, time 2170-2890 min
Candida albicans [10] = assay: Photodynamic antimicrobial activity against Candida albicans preincubated for 10 mins in dark followed by irradiation with 9J/cm2 light and measured after incubation for 36 to 48 hrs; format: functional, organism-based; details: dose 2-10 µM, time 2170-2890 min
Staphylococcus aureus [11] = assay: Photodynamic antimicrobial activity against methicillin resistant Staphylococcus aureus preincubated for 10 mins in dark followed by irradiation with 6J/cm2 light and measured after incubation for 36 to 48 hrs; format: functional, organism-based; details: dose 2-10 µM, time 2170-2890 min
Staphylococcus aureus [12] = assay: Antimicrobial activity against Staphylococcus aureus incubated for 36 to 48 hrs under dark conditions; format: functional, organism-based; details: time 36-48 hrs
Escherichia coli [13] = assay: Antimicrobial activity against Escherichia coli incubated for 36 to 48 hrs under dark conditions; format: functional, organism-based; details: time 36-48 hrs
Candida albicans [14] = assay: Antimicrobial activity against Candida albicans incubated for 36 to 48 hrs under dark conditions; format: functional, organism-based; details: time 36-48 hrs
Staphylococcus aureus [15] = assay: Antimicrobial activity against methicillin resistant Staphylococcus aureus incubated for 36 to 48 hrs under dark conditions; format: functional, organism-based; details: time 36-48 hrs
Staphylococcus aureus [16] = assay: Binding affinity to Staphylococcus aureus cell wall assessed as bound fraction at 25 uM measured after 3 to 10 mins; details: time 3-10 min
Escherichia coli [17] = assay: Binding affinity to Escherichia coli cell wall assessed as bound fraction at 25 uM measured after 3 to 10 mins; details: time 3-10 min
Candida albicans [18] = assay: Binding affinity to Candida albicans cell wall assessed as bound fraction at 25 uM measured after 3 to 10 mins; details: time 3-10 min
Staphylococcus aureus [19] = assay: Binding affinity to Staphylococcus aureus cell wall at 50 uM preincubated with 12.5 to 50 mM Ca2+ for 30 mins followed by incubation with compound for 30 mins
Escherichia coli [20] = assay: Binding affinity to Escherichia coli cell wall at 50 uM preincubated with 12.5 to 50 mM Ca2+ for 30 mins followed by incubation with compound for 30 mins
Candida albicans [21] = assay: Binding affinity to Candida albicans cell wall at 50 uM preincubated with 12.5 to 50 mM Ca2+ for 30 mins followed by incubation with compound for 30 mins
Cell membrane [22] = assay: Disruption of cell membrane integrity in Escherichia coli at 2 uM irradiated with 6J/cm2 light followed by compound exposure for 10 mins by FL-4L/propidium iodide Live/dead staining based laser confocal microscopic analysis
Candida albicans [23] = assay: Disruption of cell membrane integrity in Candida albicans at 2 uM irradiated with 6J/cm2 light followed by compound exposure for 10 mins by FL-4L/propidium iodide Live/dead staining based laser confocal microscopic analysis
HaCaT [24] = assay: Dark toxicity in human HaCaT cells assessed as reduction in cell viability incubated for 30 mins under dark conditions by MTT assay; format: cell-based; details: 0.5 h
HaCaT [25] = assay: Phototoxicity against human HaCaT cells assessed as reduction in cell viability preincubated for 30 mins followed by irradiation with 6J/cm2 light and measured after 24 hrs by MTT assay; format: cell-based; details: light or radiation study
Staphylococcus aureus [26] = assay: Antibacterial activity against Staphylococcus aureus up to 80 uM by broth microdilution method; format: functional, organism-based; details: dose microM <=80
Escherichia coli [27] = assay: Antibacterial activity against Escherichia coli up to 80 uM by broth microdilution method; format: functional, organism-based; details: dose microM <=80
Candida albicans [28] = assay: Antifungal activity against Candida albicans up to 80 uM by broth microdilution method; format: functional, organism-based; details: dose microM <=80
Staphylococcus aureus [29] = assay: Antibacterial activity against methicillin resistant Staphylococcus aureus up to 80 uM by broth microdilution method; format: functional, organism-based; details: dose microM <=80
Staphylococcus aureus [30] = assay: Light dose-dependent antimicrobial activity against Staphylococcus aureus at 2 to 4 uM preincubated for 10 mins in dark followed by irradiation with 0.6 to 6J/cm2 light dose incubated for 36 to 48 hrs; format: functional, organism-based; details: dose 2-4 µM, time 2170-2890 min
Escherichia coli [31] = assay: Light dose-dependent antimicrobial activity against Escherichia coli at 2 to 4 uM preincubated for 10 mins in dark followed by irradiation with 0.6 to 6J/cm2 light dose incubated for 36 to 48 hrs; format: functional, organism-based; details: dose 2-4 µM, time 2170-2890 min
Candida albicans [32] = assay: Light dose-dependent antimicrobial activity against Candida albicans at 2 to 4 uM preincubated for 10 mins in dark followed by irradiation with 0.6 to 9J/cm2 light dose incubated for 36 to 48 hrs; format: functional, organism-based; details: dose 2-4 µM, time 2170-2890 min
Staphylococcus aureus [33] = assay: Light dose-dependent antimicrobial activity against methicillin-resistant Staphylococcus aureus at 2 to 4 uM preincubated for 10 mins in dark followed by irradiation with 0.6 to 6J/cm2 light dose incubated for 36 to 48 hrs; format: functional, organism-based; details: dose 2-4 µM, time 2170-2890 min
Cell membrane [34] = assay: Binding affinity to Staphylococcus aureus cell membrane assessed as reduction in zeta potential by zetasizer-based analysis; format: subcellular
Cell membrane [35] = assay: Binding affinity to Escherichia coli cell membrane assessed as reduction in zeta potential by zetasizer-based analysis; format: subcellular
[36] = Drug localization in peripheral edge of Escherichia coli at 10 uM incubated for 30 mins by fluorescent dye based confocal microscopic analysis; format: ADME; details: 0.5 h
[37] = Drug uptake in human HaCaT cells at 5 uM measured after 10 to 30 mins by fluorescence based confocal laser scanning microscopic analysis; format: ADME, cell-based; details: time 10-30 min

SMILES: CC1=C(I)C(C)=[N+]2C1=Cc1c(C)c(I)c(C)n1[B-]2(C#CC[N+](C)(C)C)C#CC[N+](C)(C)C.[I-].[I-]
- Activity (Cell membrane [1]): Active
- Activity [2]: 0.68
- logP at 24 h [3]: -1.21
- MIC (Staphylococcus aureus [4]): 1.25 µM
- MIC (Escherichia coli [5]): 0.625 µM
- MIC (Candida albicans [6]): 1.25 µM
- MIC (Staphylococcus aureus [7]): 1.25 µM
- Activity (Staphylococcus aureus [8]): Dose-dependent effect
- Activity (Escherichia coli [9]): Dose-dependent effect
- Activity (Candida albicans [10]): Dose-dependent effect
- Activity (Staphylococcus aureus [11]): Dose-dependent effect
- Activity (Staphylococcus aureus [12]): inactive
- Activity (Escherichia coli [13]): inactive
- Activity (Candida albicans [14]): inactive
- Activity (Staphylococcus aureus [15]): inactive
- Activity (Staphylococcus aureus [16]): 85.3%
- Activity (Escherichia coli [17]): 71%
- Activity (Candida albicans [18]): 90.8%
- Activity (Staphylococcus aureus [19]): inactive
- Activity (Escherichia coli [20]): inactive
- Activity (Candida albicans [21]): inactive
- Activity (Cell membrane [22]): Active
- Activity (Candida albicans [23]): Active
- Activity (HaCaT [24]): Non-Toxic
- IC50 (HaCaT [25]): 4 µM
- Activity (Staphylococcus aureus [26]): inactive
- Activity (Escherichia coli [27]): inactive
- Activity (Candida albicans [28]): inactive
- Activity (Staphylococcus aureus [29]): inactive
- Activity (Staphylococcus aureus [30]): Active
- Activity (Escherichia coli [31]): Active
- Activity (Candida albicans [32]): Active
- Activity (Staphylococcus aureus [33]): Active
- Activity (Cell membrane [34]): Active
- Activity (Cell membrane [35]): Active

SMILES: CC1=C(I)C(C)=[N+]2C1=Cc1c(C)c(I)c(C)n1[B-]2(OCCC[N+](C)(C)C)OCCC[N+](C)(C)C
- Activity [2]: 0.68
- logP at 24 h [3]: -1.01
- MIC (Staphylococcus aureus [4]): 30 µM
- MIC (Escherichia coli [5]): 40 µM
- MIC (Candida albicans [6]): 40 µM
- MIC (Staphylococcus aureus [7]): 20 µM
- Activity (Staphylococcus aureus [16]): 51.8%
- Activity (Escherichia coli [17]): 38.9%
- Activity (Candida albicans [18]): 53.6%
- Activity (Staphylococcus aureus [19]): inactive
- Activity (Escherichia coli [20]): inactive
- Activity (Candida albicans [21]): inactive
- Activity (Staphylococcus aureus [26]): inactive
- Activity (Escherichia coli [27]): inactive
- Activity (Candida albicans [28]): inactive
- Activity (Staphylococcus aureus [29]): inactive
- Activity (Cell membrane [34]): Active
- Activity (Cell membrane [35]): Active

SMILES: CC1=C(I)C(C)=[N+]2C1=Cc1c(C)c(I)c(C)n1[B-]2(OCc1cc[n+](C)cc1)OCc1cc[n+](C)cc1
- Activity [2]: 0.59
- logP at 24 h [3]: -1.21
- MIC (Staphylococcus aureus [4]): 50 µM
- MIC (Escherichia coli [5]): 25 µM
- MIC (Candida albicans [6]): 40 µM
- MIC (Staphylococcus aureus [7]): 40 µM
- Activity (Staphylococcus aureus [26]): inactive
- Activity (Escherichia coli [27]): inactive
- Activity (Candida albicans [28]): inactive
- Activity (Staphylococcus aureus [29]): inactive

SMILES: CC1=CC(C)=[N+]2C1=Cc1c(C)cc(C)n1[B-]2(OCCC[N+](C)(C)C)OCCC[N+](C)(C)C.[I-].[I-]
- logP at 24 h [3]: -1.17
- Drug uptake [36]: Active

SMILES: CC1=C(I)C(C)=[N+]2C1=Cc1c(C)c(I)c(C)n1[B-]2(C#Cc1ccc[n+](C)c1)C#Cc1ccc[n+](C)c1
- Activity [2]: 0.65
- logP at 24 h [3]: -0.27
- MIC (Staphylococcus aureus [4]): 1.25 µM
- MIC (Escherichia coli [5]): 1.25 µM
- MIC (Candida albicans [6]): 0.625 µM
- MIC (Staphylococcus aureus [7]): 0.625 µM
- Activity (Staphylococcus aureus [26]): inactive
- Activity (Escherichia coli [27]): inactive
- Activity (Candida albicans [28]): inactive
- Activity (Staphylococcus aureus [29]): inactive

SMILES: CC1=C(I)C(C)=[N+]2C1=Cc1c(C)c(I)c(C)n1[B-]2(OCCCCc1cc[n+](C)cc1)OCCCCc1cc[n+](C)cc1
- Activity [2]: 0.77
- logP at 24 h [3]: -0.74
- MIC (Staphylococcus aureus [4]): 1.25 µM
- MIC (Escherichia coli [5]): 0.625 µM
- MIC (Candida albicans [6]): 5 µM
- MIC (Staphylococcus aureus [7]): 1.25 µM
- Activity (Staphylococcus aureus [26]): inactive
- Activity (Escherichia coli [27]): inactive
- Activity (Candida albicans [28]): inactive
- Activity (Staphylococcus aureus [29]): inactive

SMILES: CC1=CC(C)=[N+]2C1=Cc1c(C)cc(C)n1[B-]2(C#CC[N+](C)(C)C)C#CC[N+](C)(C)C.[I-].[I-]
- logP at 24 h [3]: -1.97
- Drug uptake [36]: Active
- Drug uptake [37]: Active
